Each structure is given as a SMILES string.

For one assay, the target named is T1, Gal4-RORγ-LBD (Homo sapiens, UniProt P51449).
T1 construct: expressed in transfected cells
T1 sequence (P51449 269-508 limits assumed): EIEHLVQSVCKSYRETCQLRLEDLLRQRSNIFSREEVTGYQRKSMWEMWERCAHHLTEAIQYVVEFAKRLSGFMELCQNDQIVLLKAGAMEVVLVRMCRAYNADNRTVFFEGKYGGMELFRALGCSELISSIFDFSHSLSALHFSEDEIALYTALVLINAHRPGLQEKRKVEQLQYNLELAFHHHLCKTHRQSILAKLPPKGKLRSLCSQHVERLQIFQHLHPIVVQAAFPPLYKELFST
Kind of assay: Gal4-RORγ Luciferase Reporter Assay in HEK-293T Cells. The assay is classed as cell-based. Particulars: HEK-293 cells, luciferase reporter, in presence of ursolic acid. Here is the method:
Assay procedures and results are described below.
In the following protocol, HEK-293 cells were transfected with a construct comprising the Gal4 DNA binding domain fused to the ligand binding domain of RORγ (Gal4-RORγ-LBD) in a pcDNA3.1neo plasmid, and also with a reporter construct comprising pGL4.31 Gal4-luciferase (Promega). Control cells were prepared similarly using empty pcDNA3.1neo and pGL4.31 vectors.
Trans-IT reagent (Mirus, 60 μL) at room temperature was added drop wise to OptiMEM (Invitrogen, 1.5 ml). This reagent mixture was mixed by inversion then incubated for 5 to 30 minutes at room temperature. It then was added to a solution of both expression vectors (5 μg each), mixed, and incubated at room temperature for about 20 minutes. HEK-293 cells were harvested from incubation flasks by removing the media, treating with TrypLE Express (Invitrogen), and incubating until the cells detached from the bottom of the flask (approximately 2-5 minutes). 10 Million cells were collected by centrifugation and re-suspended in 10 mL of Dulbecco's Modified Eagle Medium, High Glucose (DMEM, Invitrogen) containing 10% Fetal Bovine Serum and 100 IU each of penicillin and streptomycin. The re-suspended cells and the transfection mixture were added to a T75 flask, mixed and incubated overnight at 37° C. and 5% CO2.
The cells were harvested as described above, counted, and centrifuged to obtain the desired number of cells, then re-suspended in complete growth media at 0.75×10^6 cells/mL. The RORγ antagonist, ursolic acid, was added to the cells at a final concentration of […]. Cells were plated at 20 µL of cell suspension/well (10,000-15,000 cells/well) in white tissue culture treated 384 well plates. Test compounds were dissolved at 10 mM in DMSO then diluted into complete growth medium to 5× the final intended test concentration. These drug stock solutions, 5 µL/well were added to the tissue culture plate. The final DMSO concentration was 0.2%. The plates were briefly centrifuged then incubated overnight at 37° C. and 5% CO2. To conduct the assay, the tissue culture plates were allowed to equilibrate to room temperature and One-Glo luciferase reagent (Promega, 25 µL/well) was added. The plates were briefly centrifuged then incubated at room temperature for 10 minutes. The luciferase intensity was read on an Envision plate reader (Perkin Elmer). […] The luciferase signal in the absence of ursolic acid or test compound is defined at 100. The Max Response is the upper plateau in the signal as determined by line-fit using a 4-parameter logistic model in PRISM (GraphPad).
On the technique in general: In a reporter assay the amount or activity of a reporter protein is the signal.
Usually EC50 stands for the concentration needed to bring the measured effect to its halfway point. In the case of `C/C(=C\c1ccc2c(c1)N(S(=O)(=O)c1cccc(C(F)(F)F)c1)C[C@H](CCC(=O)NCCC(=O)O)O2)c1c(F)cccc1Cl` [Example 129P, (S,E)-3-(3-(6-(2-(2-chloro-6-fluorophenyl)-prop-1-en-1-yl)-4-((3-(trifluoromethyl)phenyl)-sulfonyl)-3,4-dihydro-2H-benzo[b][1,4]oxazin-2-yl)propanamido)-propanoic acid], the EC50 was under 500 nM.

Still in this assay, the particulars now being: HEK-293 cells, luciferase reporter, in presence of ursolic acid, maximum response.
On to `C/C(=C\c1ccc2c(c1)N(S(=O)(=O)c1cccc(C(F)(F)F)c1)C[C@H](CCC(=O)N1CC(O)C1)O2)c1c(F)cccc1Cl` [Example 127L, (S,E)-3-(6-(2-(2-chloro-6-fluorophenyl)prop-1-en-1-yl)-4-((3-(trifluoro-methyl)phenyl)sulfonyl)-3,4-dihydro-2H-benzo[b][1,4]oxazin-2-yl)-1-(3-hydroxyazetidin-1-yl)propan-1-one], for which the “Gal4-RORγ Assay Max Response” value is recorded as “* (a value in the range of 30 to 90)”.
On the same count and under the same terms, to `C/C(=C\c1ccc2c(c1)N(S(=O)(=O)c1cccc(C(F)(F)F)c1)C[C@H](CCC(=O)NCCC(=O)O)O2)c1c(F)cccc1Cl` [Example 129P, (S,E)-3-(3-(6-(2-(2-chloro-6-fluorophenyl)-prop-1-en-1-yl)-4-((3-(trifluoromethyl)phenyl)-sulfonyl)-3,4-dihydro-2H-benzo[b][1,4]oxazin-2-yl)propanamido)-propanoic acid] belongs “*** (a value in the range of greater than 150 to 200)”.

The same assay, now with this note: HEK-293 cells, luciferase reporter, with ursolic acid.
Take `C/C(=C\c1ccc2c(c1)N(S(=O)(=O)c1cc(F)cc(C(F)(F)F)c1)C[C@H](CCC(=O)O)O2)c1c(F)cccc1Cl` [Example 86AQ, (S,E)-3-(6-(2-(2-chloro-6-fluorophenyl)-prop-1-en-1-yl)-4-((3-fluoro-5-(trifluoromethyl)-phenyl)sulfonyl)-3,4-dihydro-2H-benzo[1,4]oxazin-2-yl)propanoic acid]: the EC50 was under 500 nM.
The same measure, in the same setting: to `CC/C(=C\c1ccc2c(c1)N(S(=O)(=O)c1cccc(C(F)(F)F)c1)C[C@H](CCC(=O)OC)O2)c1ccccc1` [Example 36B, methyl (S,E)-3-(6-(2-phenylbut-1-en-1-yl)-4-((3-(trifluoromethyl)-phenyl)sulfonyl)-3,4-dihydro-2H-benzo[b][1,4]oxazin-2-yl)propanoate] belongs over 10000 nM; to `O=C(O)CC[C@H]1CN(S(=O)(=O)c2cccc(C(F)(F)F)c2)c2cc(/C=C3\CCCOC3)ccc2O1` [Example 95I, (S,E)-3-(6-((dihydro-2H-pyran-3(4H)-ylidene)methyl)-4-((3-(trifluoromethyl)phenyl)sulfonyl)-3,4-dihydro-2H-benzo[b][1,4]oxazin-2-yl)propanoic acid], 500 to 5000 nM; to `CC(C)c1ccccc1/C=C/c1ccc2c(c1)N(S(=O)(=O)c1cccc(C(F)(F)F)c1)C[C@H](CCC(=O)O)O2` [Example 89CB, (S,E)-3-(6-(2-isopropylstyryl)-4-((3-(trifluoromethyl)-phenyl)-sulfonyl)-3,4-dihydro-2H-benzo[b][1,4]oxazin-2-yl)propanoic acid], 500 to 5000 nM.
Turning to `CCOc1nn2c(c1S(=O)(=O)N1C[C@H](CCC(=O)O)Oc3ccc(/C=C(\C)c4c(F)cccc4Cl)cc31)CCCC2` [Example 66, (S,E)-3-(6-(2-(2-Chloro-6-fluorophenyl)prop-1-en-1-yl)-4-((2-ethoxy-4,5,6,7-tetrahydropyrazolo[1,5-a]pyridin-3-yl)sulfonyl)-3,4-dihydro-2H-benzo[b][1,4]oxazin-2-yl)propanoic acid], the EC50 is under 500 nM.
The compound `CCOc1nn2c(c1S(=O)(=O)N1C[C@H](CCC(=O)OC)Oc3ccc(/C=C(\C)c4c(F)cccc4Cl)cc31)CCCC2` [Example 65, Methyl (S,E)-3-(6-(2-(2-chloro-6-fluorophenyl)prop-1-en-1-yl)-4-((2-ethoxy-4,5,6,7-tetrahydropyrazolo[1,5-a]pyridin-3-yl)sulfonyl)-3,4-dihydro-2H-benzo[b][1,4]oxazin-2-yl)propanoate] came in with an EC50 of 500 to 5000 nM.
Compound `COC(=O)CC[C@H]1CN(S(=O)(=O)c2cccc(C(F)(F)F)c2)c2cc(/C=C/c3ncccc3F)ccc2O1` [Example 89DG, methyl (S,E)-3-(6-(2-(3-fluoropyridin-2-yl)vinyl)-4-((3-(trifluoromethyl)phenyl)-sulfonyl)-3,4-dihydro-2H-benzo[b][1,4]oxazin-2-yl)propanoate] yielded an EC50 of over 10000 nM.

(Values after US9896441B2 (Lycera Corporation, priority 2014, dated 2018).)
